PubChem BioAssay AID1159565 (GlaxoSmithKline (GSK), 2015)
Activity calls are given as the source filed them. No rule for the calls is given here.

System: T. cruzi-infected H9C2 cardiomyocytes, high-content imaging
Experiment: anti-T. cruzi activity in infected cardiomyocytes – imaging, H9C2 host cardiomyocytes, host toxicity (AID 1159565);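 also: infected cells incubated 72 h after plating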
[1] = measured here: H9C2 host cell toxicity
[2] = measured here: amastigotes per cell

Structure (SMILES)	IC50	IC50 [1]	IC50 [2]
O=C(NCCc1ccccc1Cl)c1cccn1-c1cccnc1	500 nM	> 50000 nM	500 nM
Cc1cc(NC(=O)C2CCCCC2)n(-c2nc3c(c(=O)[nH]2)CCC3)n1	500 nM	2000 nM	160 nM
Cc1nc(-c2ccc3c(c2)OCO3)sc1C(=O)NCc1ccc2c(c1)OCO2	790 nM	> 50000 nM	500 nM
O=C(CSc1ccc(-c2ccccn2)nn1)Nc1ccc(Cl)cc1	2500 nM	> 50000 nM	2000 nM
COc1ncc(-c2ccc3nccc(-c4ccncc4)c3c2)cc1NS(C)(=O)=O	25000 nM	5000 nM	13000 nM
O=C(Nc1cccc(Cl)c1)Nc1ccc([N+](=O)[O-])cc1Cl	2000 nM	4000 nM	1600 nM
C[C@@H](Oc1cc(-n2cnc3ccc(C(O)CO)cc32)sc1C(N)=O)c1ccccc1C(F)(F)F (some centres undefined)	20000 nM	630 nM	16000 nM
O=C(NCCc1csc(-c2ccc(F)cc2)n1)c1ccco1	1600 nM	> 50000 nM	1300 nM
COc1ccc2ncc(Cl)c(CCN3CC[C@H](NCc4cc5c(cn4)OCS5)[C@@H](O)C3)c2n1	160 nM	10000 nM	100 nM
COc1ccc(C(=O)N2CCC(Nc3cccnc3)C2)c(OC)n1 (centres undefined)	790 nM	> 50000 nM	790 nM
O=C(NCc1ccc(Cl)cc1)C1CN(C(=O)c2ccc(F)cc2)CCS1 (centres undefined)	40000 nM	> 50000 nM	32000 nM
CC(c1ccc2c(c1)CCCC2)N(C)c1ncc2c(N)nc(N)nc2n1 (centres undefined)	32 nM	10000 nM	10 nM
COCCn1cnc2cc(NC(=O)C3CCCCC3)cc(C(=O)N3CCc4sccc4C3)c21	32000 nM	> 50000 nM	20000 nM
COc1ccc(C2CC(c3ccc(NS(C)(=O)=O)cc3)=NN2C(=O)c2cccs2)cc1OC (centres undefined)	32000 nM	> 50000 nM	16000 nM
Cc1ccccc1CNc1cc(C2CC2)nc(-c2nccn2C)n1	790 nM	790 nM	790 nM
CC1CCCN(S(=O)(=O)c2ccc(C(=O)Nc3nc(-c4ccccn4)cs3)cc2)C1 (centres undefined)	500 nM	3200 nM	250 nM
CC(C)c1cc(C(=O)N2CCCC(c3cc4ncccc4[nH]3)C2)on1 (centres undefined)	3200 nM	> 50000 nM	1000 nM
CC(C)(C)CC(=O)NCCc1csc(-c2ccc(F)cc2)n1	1000 nM	> 50000 nM	790 nM
Cc1ccc(NC(=O)c2ccc([N+](=O)[O-])s2)cc1S(=O)(=O)N1CCOCC1	400 nM	5000 nM	250 nM
O=C(c1cc2cc(Cl)ccc2[nH]1)N1CCCCC1c1cccnc1 (centres undefined)	130 nM	32000 nM	130 nM
COc1ccc(NS(=O)(=O)c2cc(-c3cc(C)[nH]n3)ccc2C)cc1OC	2000 nM	> 50000 nM	1300 nM
CC(Cn1ccnc1)NC(=O)C=Cc1ccc(Cl)cc1 (centres undefined)	1000 nM	> 50000 nM	630 nM
CCNc1cc(-c2ccccn2)nc(Nc2ccc(OC)cc2)n1	3200 nM	320 nM	2500 nM
CCOc1ccc(NC(=O)c2ccc(NC(=O)NC3CCCCC3)cc2)cc1	> 50000 nM (inactive)	> 50000 nM	> 50000 nM
O=c1[nH]c(C=Cc2cccc(OCCOc3ccccc3)c2)nc(O)c1[N+](=O)[O-]	200 nM	> 50000 nM	160 nM
CC(C)c1nn(-c2nc(N)nc(-c3ccccn3)n2)c(N)c1C1CCCCC1	1300 nM	3200 nM	1300 nM
O=C(NCCc1ccn(-c2ccccc2)n1)C1CCCCC1	1000 nM	> 50000 nM	1000 nM
CS(=O)(=O)c1ccc(Nc2nccc(-c3cnn4ncccc34)n2)cc1	25000 nM	5000 nM	1000 nM
